Measured values: patent publication US10166216B2 (Rigel Pharmaceuticals, Inc., priority 2006, dated 2019)

Target: Axl (Homo sapiens (Human), UniProt P30530)
Assay: Phospho-Akt in-cell Western assay (Axl-antibody cross-linking stimulation)
Type: cell-based
Details: inhibition of Axl activity, Hela cells, phospho-Akt readout; Table 1, formula (Ia1)
Experimental: The working solution: dilute the stock 1:20 with PBS immediately before use. • 10% SDS: working solution: 5% SDS (sodium dodecylsulfate), diluted in PBS Methods: Day 1:
A 96 well TC (tissue culture treated) plate was coated with 10 μg/mL poly-L-Lysine at 37° C. for 30 min, washed twice with PBS, and air-dried for 5 minutes before cells were added. Hela cells were seeded at 10,000 cells/well and the cells were starved in 100 μL starvation medium containing Axl/Fc for 24 hrs.
The cells were pre-treated with test compounds by adding 100 μL of 2× test compound to the starvation medium on the cells. The cells were incubated at 37° C. for 1 hr before stimulation.
The resulting mix was warmed to 37° C. 50 μL of 5× Axl 1st/2nd of antibody cluster was added to the cells and the cells were incubated at 37° C. for 5 min.
After 5 minutes stimulation, the plate was flicked to remove medium and the plate was tapped onto paper towels. Formaldehyde (4.0% in PBS, 100 μL) was added to fix the cells and the cells were incubated at ambient temperature for 20 min without shaking.
The cells were washed with a plate washer buffer to remove the formaldehyde solution. The plate was flicked to removed excess wash buffer and tapped onto paper towels. Quenching buffer (100 μL) was added to each well and the cells were incubated at ambient temperature for 20 minutes without shaking.
The cells were washed with a plate washer buffer to remove the quenching buffer. Blocking buffer (100 μL) was added and the cells were incubated at ambient temperature for at least an hour with gentle shaking.
The cells were washed with a plate washer buffer and diluted primary antibody (50 μL) was added to each well (blocking buffer was added to the negative control wells instead). The plates were incubated overnight at 4° C. with gentle shaking.
The wash buffer was removed, diluted secondary antibody (100 μL) was added, and the cells were incubated at ambient temperature for 1 hour with gentle shaking. During the incubation, the chemiluminescent reagent was brought to ambient temperature.
The secondary antibody was removed by washing the cells 1× with wash buffer, 1× with PBS by plate washer. The PBS was removed from the plate and the chemiluminescent reagent (80 μL: 40 μL A and 40 μL B) was added to each well at ambient temperature.
The resulting chemiluminescence was read with a Luminomitor within 10 minutes to minimize changes in signal intensity. […] The plate was tapped onto paper towels to remove excess liquid from wells and air-dried at ambient temperature for 5 minutes.
Crystal Violet working solution (60 μL) was added to each well and the cells were incubated at ambient temperature for 30 min. The crystal violet solution was removed, and the wells were rinsed with PBS, then washed 3× with PBS (200 μL) for 5 minutes each.
5% SDS solution (70 μL) was added to each well and the cells were incubated on a shaker for 30 min at ambient temperature.
This relative cell number was then used to normalize each luminescence reading. […]

Sequence of Axl (P30530 26-894): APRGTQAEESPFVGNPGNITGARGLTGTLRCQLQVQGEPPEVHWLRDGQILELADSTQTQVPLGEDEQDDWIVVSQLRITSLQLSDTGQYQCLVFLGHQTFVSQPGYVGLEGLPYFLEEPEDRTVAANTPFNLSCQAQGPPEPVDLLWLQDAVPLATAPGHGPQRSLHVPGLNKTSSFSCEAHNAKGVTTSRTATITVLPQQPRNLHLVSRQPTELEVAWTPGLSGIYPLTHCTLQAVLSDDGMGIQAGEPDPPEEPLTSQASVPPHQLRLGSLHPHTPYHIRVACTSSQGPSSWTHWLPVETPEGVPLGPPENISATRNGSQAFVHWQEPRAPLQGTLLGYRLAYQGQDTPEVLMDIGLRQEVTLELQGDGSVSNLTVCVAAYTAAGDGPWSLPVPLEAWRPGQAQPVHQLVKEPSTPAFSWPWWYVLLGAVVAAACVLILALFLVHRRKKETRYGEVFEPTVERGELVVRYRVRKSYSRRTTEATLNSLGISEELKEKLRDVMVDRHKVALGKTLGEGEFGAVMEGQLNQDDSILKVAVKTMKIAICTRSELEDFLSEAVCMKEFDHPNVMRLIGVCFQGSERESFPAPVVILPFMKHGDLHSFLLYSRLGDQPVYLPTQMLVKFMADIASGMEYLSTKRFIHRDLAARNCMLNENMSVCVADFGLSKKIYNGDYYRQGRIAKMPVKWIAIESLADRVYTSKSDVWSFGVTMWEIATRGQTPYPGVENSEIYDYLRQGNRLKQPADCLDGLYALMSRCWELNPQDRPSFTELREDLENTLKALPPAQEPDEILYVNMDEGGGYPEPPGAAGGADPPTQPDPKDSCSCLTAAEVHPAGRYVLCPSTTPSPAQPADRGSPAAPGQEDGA

SMILES	IC50 [nM]
CN(C)c1cccc(-n2nc(Nc3ccc(OCCN4CCCCC4)cc3)nc2N)n1 [Compound 36, 1-(6-(dimethylamino)pyridin-2-yl)-N^3-(4-(2-(piperidin-1-yl)ethoxy)phenyl)-1H-1,2,4-triazole-3,5-diamine]	10000 to 20000
Nc1nc(Nc2ccc(OCCN3CCCC3)cc2)nn1-c1nc(N2CCOCC2)nc2ccccc12 [Compound 38, 1-(2-morpholinoquinazolin-4-yl)-N^3-(4-(2-(pyrrolidin-1-yl)ethoxy)phenyl)-1H-1,2,4-triazole-3,5-diamine]	1000 to 10000
Cc1cc(O)nc(-n2nc(Nc3ccc(OCCN4CCCC4)cc3)nc2N)n1 [Compound 42, 2-(5-amino-3-(4-(2-(pyrrolidin-1-yl)ethoxy)phenylamino)-1H-1,2,4-triazol-1-yl)-6-methylpyrimidin-4-ol]	> 20000
Nc1nc(Nc2ccc(OCCN3CCCC3)cc2)nn1-c1ncccn1 [Compound 47, 1-(pyrimidin-2-yl)-N^3-(4-(2-(pyrrolidin-1-yl)ethoxy)phenyl)-1H-1,2,4-triazole-3,5-diamine]	> 20000
Nc1nc(Nc2ccc(OCCN3CCCC3)cc2)nn1-c1ncnc2ccsc12 [Compound 54, N^3-(4-(2-(pyrrolidin-1-yl)ethoxy)phenyl)-1-(thieno[3,2-d]pyrimidin-4-yl)-1H-1,2,4-triazole-3,5-diamine]	< 1000
Nc1nc(Nc2ccc(OCCN3CCCC3)c(F)c2)nn1-c1cnc2ccccc2n1 [Compound 55, N^3-(3-fluoro-4-(2-(pyrrolidin-1-yl)ethoxy)phenyl)-1-(quinoxalin-2-yl)-1H-1,2,4-triazole-3,5-diamine]	< 1000
Nc1nc(Nc2ccc(OCCN3CCCC3)c(F)c2)nn1-c1nc2ccccc2s1 [Compound 56, 1-(benzo[d]thiazol-2-yl)-N^3-(3-fluoro-4-(2-(pyrrolidin-1-yl)ethoxy)phenyl)-1H-1,2,4-triazole-3,5-diamine]	< 1000
Nc1nc(Nc2ccc(OCCN3CCCC3)c(F)c2)nn1-c1ccccn1 [Compound 57, N^3-(3-fluoro-4-(2-(pyrrolidin-1-yl)ethoxy)phenyl)-1-(pyridin-2-yl)-1H-1,2,4-triazole-3,5-diamine]	< 1000
Nc1nc(Nc2ccc(OCCN3CCCC3)c(F)c2)nn1-c1nccc2ccccc12 [Compound 58, N^3-(3-fluroo-4-(2-(pyrrolidin-1-yl)ethoxy)phenyl)-1-(isoquinolin-1-yl)-1H-1,2,4-triaozle-3,5-diamine]	< 1000
Nc1nc(Nc2ccc(OCCN3CCCC3)cc2)nn1-c1ncnc2sc3c(c12)CCCC3 [Compound 61, 1-(5,6,7,8-tetrahydrobenzo[4.,5]thieno[2,3-d]pyrimidin-4-yl)-N^3-(4-(2-(pyrrolidin-1-yl)ethoxy)phenyl)-1H-1,2,4-triazole-3,5-diamine]	< 1000
Nc1nc(Nc2ccc(OCCN3CCCC3)c(Cl)c2)nn1-c1nccc2ccccc12 [Compound 62, N^3-(3-chloro-4-(2-(pyrrolidin-1-yl)ethoxy)phenyl)-1-(isoquinolin-1-yl)-1H-1,2,4-triazole-3,5-diamine]	< 1000
Nc1nc(Nc2ccc(OCCN3CCCC3)cc2)nn1-c1nccc2ccsc12 [Compound 64, N^3-(4-(2-(pyrrolidin-1-yl)ethoxy)phenyl)-1-(thieno[2,3-c]pyridin-7-yl)-1H-1,2,4-triazole-3,5-diamine]	< 1000
Nc1nc(Nc2ccc(OCCN3CCCC3)cc2)nn1-c1ncnc2sc3c(c12)CCC3 [Compound 66, 1-(6,7-dihydro-5H-cyclopenta[4,5]thieno[2,3-d]pyrimidin-4-yl)-N^3-(4-(2-(pyrrolidin-1-yl)ethoxy)phenyl)-1H-1,2,4-triazole-3,5-diamine]	< 1000
Nc1nc(Nc2ccc(OCCN3CCCC3)c(Cl)c2)nn1-c1ncnc2sc3c(c12)CCCC3 [Compound 67, N^3-(3-chloro-4-(2-(pyrrolidin-1-yl)ethoxy)phenyl)-1-(5,6,7,8-tetrahydrobenzo[4,5]thieno[2,3-d]pyrimidin-4-yl)-1H-1,2,4-triazole-3,5-diamine]	< 1000
Nc1nc(Nc2ccc(OCCN3CCCC3)c(F)c2)nn1-c1ncnc2sc3c(c12)CCCC3 [Compound 68, N^3-(3-fluoro-4-(2-(pyrrolidin-1-yl)ethoxy)phenyl)-1-(5,6,7,8-tetrahydrobenzo[4,5]thieno[2,3-d]pyrimidin-4-yl)-1H-1,2,4-triazole-3,5-diamine]	< 1000
Nc1nc(Nc2ccc(OCCN3CCCC3)cc2)nn1-c1nccc2occc12 [Compound 69, 1-(furo[3,2-c]pyridin-4-yl)-N^3-(4-(2-(pyrrolidin-1-yl)ethoxy)phenyl)-1H-1,2,4-triazole-3,5-diamine]	< 1000
Nc1nc(Nc2ccc(OCCN3CCCC3)cc2)nn1-c1cc2c(nn1)-c1ccccc1CC2 [Compound 75, 1-(5,6-dihydrobenzo[h]cinnolin-3-yl)-N^3-(4-(2-(pyrrolidin-1-yl)ethoxy)phenyl)-1H-1,2,4-triazole-3,5-diamine]	< 1000

Now from value to compound:

IC50 [nM]	SMILES
< 1000	Nc1nc(Nc2ccc(OCCN3CCCC3)cc2)nn1-c1nc(Cl)nc2ccccc12 [Compound 37, 1-(2-chloroquinazolin-4-yl)-N^3-(4-(2-(pyrrolidin-1-yl)ethoxy)phenyl)-1H-1,2,4-triazole-3,5-diamine]
< 1000	Nc1nc(Nc2ccc(OCCN3CCCC3)c(Cl)c2)nn1-c1nc2ccccc2s1 [Compound 39, 1-(benzo[d]thiazol-2-yl)-N^3-(3-chloro-4-(2-(pyrrolidin-1-yl)ethoxy)phenyl)-1H-1,2,4-triazole-3,5-diamine]
< 1000	Cn1c(-n2nc(Nc3ccc(OCCN4CCCC4)c(Cl)c3)nc2N)nc2ccccc21 [Compound 40, N^3-(3-chloro-4-(2-(pyrrolidin-1-yl)ethoxy)phenyl)-1-(1-methyl-1H-benzo[d]imidazol-2-yl)-1H-1,2,4-triazole-3,5-diamine]
< 1000	Nc1nc(Nc2ccc(OCCN3CCCC3)cc2)nn1-c1ccc2ccccc2n1 [Compound 41, N^3-(4-(2-(pyrrolidin-1-yl)ethoxy)phenyl)-1-(quinolin-2-yl)-1H-1,2,4-triazole-3,5-diamine]
< 1000	COc1cc2nc(Cl)nc(-n3nc(Nc4ccc(OCCN5CCCC5)cc4)nc3N)c2cc1OC [Compound 44, 1-(2-chloro-6,7-dimethoxyquinazolin-4-yl)-N^3-(4-(2-(pyrrolidin-1-yl)ethoxy)phenyl)-1H-1,2,4-triazole-3,5-diamine]
< 1000	COc1cc2ncnc(-n3nc(Nc4ccc(OCCN5CCCC5)cc4)nc3N)c2cc1OC [Compound 45, 1-(6,7-dimethoxyquinazolin-4-yl)-N^3-(4-(2-(pyrrolidin-1-yl)ethoxy)phenyl)-1H-1,2,4-triazole-3,5-diamine]
< 1000	CC1CCC(C)N1CCOc1ccc(Nc2nc(N)n(-c3cnc4ccccc4n3)n2)cc1 (centres unmarked) [Compound 46, N^3-(4-(2-(2,5-dimethylpyrrolidin-1-yl)ethoxy)phenyl)-1-(quinoxalin-2-yl)-1H-1,2,4-triazole-3,5-diamine]
< 1000	Nc1nc(Nc2ccc(OCCN3CCCC3)cc2)nn1-c1nc(Cl)nc2c1CCC2 [Compound 49, 1-(2-chloro-6,7-dihydro-5H-cyclopenta[d]pyrimidin-4-yl)-N^3-(4-(2-(pyrrolidin-1-yl)ethoxy)phenyl)-1H-1,2,4-triazole-3,5-diamine]
< 1000	Nc1nc(Nc2ccc(OCCN3CCCC3)cc2)nn1-c1nccc2ccccc12 [Compound 50, 1-(isoquinolin-1-yl)-N^3-(4-(2-(pyrrolidin-1-yl)ethoxy)phenyl)-1H-1,2,4-triazole-3,5-diamine]
< 1000	Nc1nc(Nc2ccc(OCCN3CCCC3)cc2)nn1-c1ncnc2sccc12 [Compound 51, N^3-(4-(2-(pyrrolidin-1-yl)ethoxy)phenyl)-1-(thieno[2,3-d]pyrimidin-4-yl)-1H-1,2,4-triazole-3,5-diamine]
< 1000	Nc1nc(Nc2ccc(OCCN3CCCC3)cc2)nn1-c1ncnc2cc(-c3ccccc3)sc12 [Compound 52, 1-(6-phenylthieno[3,2-d]pyrimidin-4-yl)-N^3-(4-(2-(pyrrolidin-1-yl)ethoxy)phenyl)-1H-1,2,4-triaozle-3,5-diamine]
< 1000	Nc1nc(Nc2ccc(OCCN3CCCC3)cc2)nn1-c1nc(C(F)(F)F)nc2ccccc12 [Compound 53, N^3-(4-(2-(pyrrolidin-1-yl)ethoxy)phenyl)-1-(2-(trifluoromethyl)quinazolin-4-yl)-1H-1,2,4-triazole-3,5-diamine]
